Consider one molecule from patent US20130012389A1, “Substituted Pyridazines Having Herbicidal Action” (BASF SE, priority 2010, published 2013).

One experiment deals with AMARE. Briefly: greenhouse experiment, post-emergence treatment, herbicidal activity against AMARE. In kind it is in vivo, Amaranthus retroflexus. The note with it: application rate 0.5 kg/ha, post-emergence method; scale from 0 to 100. The text has this:
(§1) The seeds of the test plants were sown separately for each species. For the post-emergence treatment, the test plants were first grown to a height of 3 to 15 cm, depending on the plant habit, and only then treated with the active ingredients which had been suspended or emulsified in water. For this purpose, the test plants were either sown directly and grown in the same containers, or they were first grown separately as seedlings and transplanted into the test containers a few days prior to treatment. Depending on the species, the plants were kept at 10-25° C. or 20-35° C. The test period extended over 2 to 4 weeks. During this time, the plants were tended, and their response to the individual treatments was evaluated. Evaluation was carried out using a scale from 0 to 100. 100 means no emergence of the plants, or complete destruction of at least the aerial moieties, and 0 means no damage, or normal course of growth. A good herbicidal activity is given at values of at least 70 and a very good herbicidal activity is given at values of at least 85. The plants used in the greenhouse experiments belonged to the following species: [table]

The test system of another experiment is CHEAL. Briefly: greenhouse experiment, post-emergence treatment, herbicidal activity against CHEAL. Format: in vivo, Chenopodium album. The note with it: application rate 0.5 kg/ha, post-emergence method; scale from 0 to 100.
From the text: as §1

Regarding `O=c1oc2nccnc2c(O)c1-c1cc(Cl)cc(N2CCOCC2)c1C(F)(F)F` [1-4, 7-[5-chloro-3-morpholino-2-(trifluoromethyl)phenyl]-8-hydroxy-pyrano[2,3-b]pyrazin-6-one], the “herbicidal activity against AMARE” value in the experiment on AMARE is “very good herbicidal activity (a very good herbicidal activity is given at values of at least 85)”. The “herbicidal activity against CHEAL” value in the experiment on CHEAL is “very good herbicidal activity (a very good herbicidal activity is given at values of at least 85)”.
